# In patent US20240174679A1, “HETEROAROYL AMIDES AS LRRK2 INHIBITORS, PHARMACEUTICAL COMPOSITIONS, AND USES THEREOF” (MERCK SHARP & DOHME LLC, priority 2021, published 2024):
# Target: GST tagged truncated human mutant G2019S LRRK2 (Homo sapiens (Human), UniProt Q5S007, G2019S)
# Test: LRRK2 Km ATP LanthaScreen Assay
# Format: biochemical
# Conditions: 134 μM ATP (Km ATP), LRRKtide substrate, negative log of mean IC50 (molar)
# How it was run: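 Truncated GST-tagged G2019S LRRK2 (1.25 nM enzyme solution) was preincubated with compound for 15 min at rt, then reacted for 90 min with fluorescein-LRRKtide and 134 μM ATP (Km) in Tris pH 8.5/MgCl2 buffer. After an EDTA stop, TR-FRET used a Tb anti-pERM antibody (520/495 nm ratio). IC50 came from a 4-parameter fit and is reported as pIC50, mean of several runs.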
# Sequence of GST tagged truncated human mutant G2019S LRRK2 (Q5S007 970-2527 G2019S): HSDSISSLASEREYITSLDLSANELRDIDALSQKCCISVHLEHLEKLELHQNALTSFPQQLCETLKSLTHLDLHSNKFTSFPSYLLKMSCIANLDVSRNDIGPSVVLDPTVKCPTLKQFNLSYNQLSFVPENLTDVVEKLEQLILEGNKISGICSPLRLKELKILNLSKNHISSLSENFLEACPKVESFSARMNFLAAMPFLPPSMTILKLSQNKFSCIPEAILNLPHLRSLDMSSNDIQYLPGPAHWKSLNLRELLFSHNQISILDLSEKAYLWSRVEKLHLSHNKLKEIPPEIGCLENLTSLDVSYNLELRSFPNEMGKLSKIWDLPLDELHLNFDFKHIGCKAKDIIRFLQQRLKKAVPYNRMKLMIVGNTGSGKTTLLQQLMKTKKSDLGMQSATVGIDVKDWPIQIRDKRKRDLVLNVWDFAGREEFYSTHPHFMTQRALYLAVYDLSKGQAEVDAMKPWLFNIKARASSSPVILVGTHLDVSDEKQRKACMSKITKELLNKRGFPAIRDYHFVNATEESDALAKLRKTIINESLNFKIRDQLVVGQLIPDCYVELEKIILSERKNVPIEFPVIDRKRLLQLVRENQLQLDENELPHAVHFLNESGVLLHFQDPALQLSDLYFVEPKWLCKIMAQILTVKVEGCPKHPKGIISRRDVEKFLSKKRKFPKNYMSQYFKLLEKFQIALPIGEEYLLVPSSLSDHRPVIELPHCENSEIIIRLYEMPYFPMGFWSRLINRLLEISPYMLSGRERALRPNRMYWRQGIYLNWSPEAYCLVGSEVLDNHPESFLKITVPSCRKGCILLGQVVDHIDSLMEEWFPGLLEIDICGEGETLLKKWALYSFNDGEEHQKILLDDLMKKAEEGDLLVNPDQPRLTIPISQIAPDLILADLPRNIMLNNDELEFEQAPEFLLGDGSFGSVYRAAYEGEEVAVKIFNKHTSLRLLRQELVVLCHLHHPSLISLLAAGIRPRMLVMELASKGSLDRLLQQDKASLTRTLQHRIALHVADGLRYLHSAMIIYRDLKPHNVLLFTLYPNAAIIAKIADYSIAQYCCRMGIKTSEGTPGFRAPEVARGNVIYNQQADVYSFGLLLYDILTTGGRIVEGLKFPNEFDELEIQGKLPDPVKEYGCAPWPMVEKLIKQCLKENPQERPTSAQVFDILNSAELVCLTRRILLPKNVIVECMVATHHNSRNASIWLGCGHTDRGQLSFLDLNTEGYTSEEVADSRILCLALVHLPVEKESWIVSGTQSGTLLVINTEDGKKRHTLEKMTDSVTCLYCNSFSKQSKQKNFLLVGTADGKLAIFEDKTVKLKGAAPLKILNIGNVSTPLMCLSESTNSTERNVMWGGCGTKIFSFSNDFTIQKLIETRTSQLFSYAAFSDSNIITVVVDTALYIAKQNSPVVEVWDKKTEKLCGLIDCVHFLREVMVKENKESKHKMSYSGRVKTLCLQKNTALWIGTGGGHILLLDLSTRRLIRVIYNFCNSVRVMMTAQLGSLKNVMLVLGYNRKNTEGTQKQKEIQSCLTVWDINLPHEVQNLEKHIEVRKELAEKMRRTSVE
row,SMILES,LRRK2 pIC50
1,"O=C(Nc1cnn(C2CCC2)c1)c1cccc(N2CCCCC2)n1 [Example 4-18, N-(1-cyclobutyl-1H-pyrazol-4-yl)-6-(piperidin-1-yl)picolinamide]",5.81
2,"CC(C)Nc1nc(C(=O)Nc2cnn(C3CCC3)c2)cs1 [Example 4-3, N-(1-cyclobutyl-1H-pyrazol-4-yl)-2-[(1-methylethyl)amino]-1,3-thiazole-4-carboxamide]",6.19
3,"COc1nn(CC(F)F)cc1NC(=O)c1csc(-c2cn[nH]c2)n1 [Example 7-20, N-[1-(2,2-difluoroethyl)-3-methoxy-1H-pyrazol-4-yl]-2-(1H-pyrazol-4-yl)-1,3-thiazole-4-carboxamide]",7.58
4,"COCCn1cc(-c2cccc(C(=O)Nc3cnn(CC4CCC4)c3)n2)cn1 [Example 9-12, N-[1-(cyclobutylmethyl)-1H-pyrazol-4-yl]-6-[1-(2-methoxyethyl)-1H-pyrazol-4-yl]pyridine-2-carboxamide]",6.95
5,"Cn1cc(NC(=O)c2csc(-c3cn[nH]c3)n2)c(Oc2ccccc2)n1 [Example 1-30, N-(1-methyl-3-phenoxy-1H-pyrazol-4-yl)-2-(1H-pyrazol-4-yl)-1,3-thiazole-4-carboxamide]",7.78
6,"O=C(Nc1cnn(C2CCC2)c1)c1cccc(N2CCCC2)n1 [Example 4-16, N-(1-cyclobutyl-1H-pyrazol-4-yl)-6-(pyrrolidin-1-yl)picolinamide]",6.04
7,"O=C(Nc1cnn(C2CCC2)c1)c1csc(-c2cnn3c2CCCC3)n1 [Example 9-27, N-(1-cyclobutyl-1H-pyrazol-4-yl)-2-(4,5,6,7-tetrahydropyrazolo [1,5-a]pyridin-3-yl)-1,3-thiazole-4-carboxamide]",8.25
8,"COc1nn(CC2CC2)cc1NC(=O)c1csc(-c2cn[nH]c2)n1 [Example 7-14, N-[1-(cyclopropylmethyl)-3-methoxy-1H-pyrazol-4-yl]-2-(1H-pyrazol-4-yl)-1,3-thiazole-4-carboxamide]",7.92
9,"O=C(Nc1cn(CC2CCCCO2)nc1C(F)F)c1csc(-c2cn[nH]c2)n1 (stereo not shown) [Example 7-5, N-[3-(difluoromethyl)-1-(tetrahydro-2H-pyran-2-ylmethyl)-1H-pyrazol-4-yl]-2-(1H-pyrazol-4-yl)-1,3-thiazole-4-carboxamide]",7.32
10,"CC(=O)Nc1cccc(C(=O)Nc2cnn(C3CCC3)c2)n1 [Example 4-8, 6-(acetylamino)-N-(1-cyclobutyl-1H-pyrazol-4-yl)pyridine-2-carboxamide]",6.33
11,"O=C(Nc1cn(C2CC2)nc1C1CC1)c1csc(-c2cn[nH]c2)n1 [Example 1-6, N-(1,3-dicyclopropyl-1H-pyrazol-4-yl)-2-(1H-pyrazol-4-yl)-1,3-thiazole-4-carboxamide]",7.84
12,"N#CC1CCC(Cn2cc(NC(=O)c3csc(-c4cn[nH]c4)n3)cn2)CC1 (stereo not shown) [Example 7-37, N-{1-[(4-cyanocyclohexyl)methyl]-1H-pyrazol-4-yl}-2-(1H-pyrazol-4-yl)-1,3-thiazole-4-carboxamide]",7.72
13,"COc1nn(CC2CCOCC2)cc1NC(=O)c1csc(-c2cn[nH]c2)n1 [Example 7-16, N-[3-methoxy-1-(tetrahydro-2H-pyran-4-ylmethyl)-1H-pyrazol-4-yl]-2-(1H-pyrazol-4-yl)-1,3-thiazole-4-carboxamide]",7.25
14,"Cn1cc(-c2nc(C(=O)Nc3cn(C4CCC4)nc3C3CC3)cs2)cn1 [Example 12-2, N-(1-cyclobutyl-3-cyclopropyl-1H-pyrazol-4-yl)-2-(1-methyl-1H-pyrazol-4-yl)-1,3-thiazole-4-carboxamide]",7.76
15,"COc1nn(CC(F)(F)F)cc1NC(=O)c1csc(-c2cnn(S(C)(=O)=O)c2)n1 [Example 13-1, N-(3-Methoxy-1-(2,2,2-trifluoroethyl)-1H-pyrazol-4-yl)-2-(1-(methylsulfonyl)-1H-pyrazol-4-yl)thiazole-4-carboxamide]",5.97
16,"Cn1ccc(-c2cccc(C(=O)Nc3cnn(CC4CCC4)c3)n2)n1 [Example 9-22, N-[1-(cyclobutylmethyl)-1H-pyrazol-4-yl]-6-(1-methyl-1H-pyrazol-3-yl)pyridine-2-carboxamide]",6.53
17,"O=C(Nc1cnn(CC2CCC2)c1)c1cccc(-c2cnn3c2COCC3)n1 [Example 9-10, N-[1-(cyclobutylmethyl)-1H-pyrazol-4-yl]-6-(6,7-dihydro-4H-pyrazolo[5,1-c][1,4]oxazin-3-yl)pyridine-2-carboxamide]",7.76
18,"CC(C)Oc1cccc(C(=O)Nc2cnn(C3CCC3)c2)n1 [Example 4-6, N-(1-cyclobutyl-1H-pyrazol-4-yl)-6-(1-methylethoxy) pyridine-2-carboxamide]",7.10

row,SMILES,LRRK2 pIC50
1,"O=C(Nc1cnn(CC2CCC2)c1)c1cccc(-c2cccnc2F)n1 [Example 9-24, N-[1-(cyclobutylmethyl)-1H-pyrazol-4-yl]-2′-fluoro-2,3′-bipyridine-6-carboxamide]",7.16
2,"Cc1nn(C(F)F)cc1NC(=O)c1csc(-c2cn[nH]c2)n1 [Example 1-5, N-[1-(difluoromethyl)-3-methyl-1H-pyrazol-4-yl]-2-(1H-pyrazol-4-yl)-1,3-thiazole-4-carboxamide]",7.08
3,"CC(C)n1cc(NC(=O)c2coc(-c3cn[nH]c3)n2)cn1 [Example 1-39, N-[1-(1-methylethyl)-1H-pyrazol-4-yl]-2-(1H-pyrazol-4-yl)-1,3-oxazole-4-carboxamide]",6.36
4,"CC1COc2c(-c3cccc(C(=O)Nc4cnn(CC5CCC5)c4)n3)cnn2C1 (stereo not shown) [Example 9-7, N-[1-(cyclobutylmethyl)-1H-pyrazol-4-yl]-6-(6-methyl-6,7-dihydro-5H-pyrazolo[5,1-b][1,3]oxazin-3-yl)pyridine-2-carboxamide]",6.87
5,"Cn1cc(-c2cccc(C(=O)Nc3cnn(C4CCC4)c3)n2)cn1 [Example 9-1, N-(1-Cyclobutyl-1H-pyrazol-4-yl)-6-(1-methyl-1H-pyrazol-4-yl)picolinamide]",7.27
6,"O=C(Nc1cn(CC2CCOCC2)nc1C(F)F)c1csc(-c2cn[nH]c2)n1 [Example 7-7, N-[3-(difluoromethyl)-1-(tetrahydro-2H-pyran-4-ylmethyl)-1H-pyrazol-4-yl]-2-(1H-pyrazol-4-yl)-1,3-thiazole-4-carboxamide]",7.72
7,"COc1nn(CC(F)(F)F)cc1NC(=O)c1csc(-c2cn[nH]c2)n1 [Example 1-2, N-(3-Methoxy-1-(2,2,2-trifluoroethyl)-1H-pyrazol-4-yl)-2-(1H-pyrazol-4-yl)thiazole-4-carboxamide]",7.46
8,"O=C(Nc1cnn(CC2CCC2)c1)c1cccc(-c2ccncc2)n1 [Example 9-16, N-[1-(cyclobutylmethyl)-1H-pyrazol-4-yl]-2,4′-bipyridine-6-carboxamide]",5.04
9,"O=C(Nc1cnn(C2CCC2)c1)c1csc(-n2ccnc2)n1 [Example 11-2, N-(1-cyclobutyl-1H-pyrazol-4-yl)-2-(1H-imidazol-1-yl)thiazole-4-carboxamide]",6.61
10,"O=C(Nc1cnn(CC2CCC2)c1)c1cccc(-c2cnn(Cc3ccccn3)c2)n1 [Example 9-8, N-[1-(cyclobutylmethyl)-1H-pyrazol-4-yl]-6-[1-(pyridin-2-ylmethyl)-1H-pyrazol-4-yl]pyridine-2-carboxamide]",6.54
11,"O=C(Nc1cnn(CC2(F)CCC2)c1)c1csc(-c2cn[nH]c2)n1 [Example 1-43, N-{1-[(1-fluorocyclobutyl)methyl]-1H-pyrazol-4-yl}-2-(1H-pyrazol-4-yl)-1,3-thiazole-4-carboxamide]",7.64
12,"Cc1nn(C2CCC2)cc1NC(=O)c1csc(-c2cnn(C)c2)n1 [Example 12-5, N-(1-cyclobutyl-3-methyl-1H-pyrazol-4-yl)-2-(1-methyl-1H-pyrazol-4-yl)-1,3-thiazole-4-carboxamide]",7.30
13,"Cn1cc(-c2nc(C(=O)Nc3cnn(C4CCC4)c3)cs2)cn1 [Example 9-28, N-(1-cyclobutyl-1H-pyrazol-4-yl)-2-(1-methyl-1H-pyrazol-4-yl)-1,3-thiazole-4-carboxamide]",7.85
14,"N#CC1(c2cccc(C(=O)Nc3cnn(CC4CCC4)c3)n2)CC1 [Example 10-1, 6-(1-Cyanocyclopropyl)-N-(1-(cyclobutylmethyl)-1H-pyrazol-4-yl)picolinamide]",6.90
15,"Cn1cnc(-c2nc(C(=O)Nc3cnn(C4CCC4)c3)cs2)c1 [Example 9-9, N-(1-cyclobutyl-1H-pyrazol-4-yl)-2-(1-methyl-1H-imidazol-4-yl)-1,3-thiazole-4-carboxamide]",8.04
16,"O=C(Nc1cnn(CCC2CCNCC2)c1)c1csc(-c2cn[nH]c2)n1 [Example 7-32, N-{1-[2-(piperidin-4-yl)ethyl]-1H-pyrazol-4-yl}-2-(1H-pyrazol-4-yl)-1,3-thiazole-4-carboxamide]",7.38
17,"CC(C)Oc1nn(C)cc1NC(=O)c1csc(-c2cn[nH]c2)n1 [Example 1-16, N-[1-methyl-3-(1-methylethoxy)-1H-pyrazol-4-yl]-2-(1H-pyrazol-4-yl)-1,3-thiazole-4-carboxamide]",7.43
18,"O=C(Nc1cnn(C2CCC2)c1)c1ccn(-c2ncccn2)n1 [Example 4-11, N-(1-cyclobutyl-1H-pyrazol-4-yl)-1-pyrimidin-2-yl-1H-pyrazole-3-carboxamide]",5.71

# Same assay, conditions: 134 μM ATP (Km ATP), LRRKtide substrate, negative log of mean IC50 (molar), read-out: LRRK2 pIC50 (converted)
row,SMILES,IC50 [nM]
1,"CC(C1CC1)n1cc(NC(=O)c2csc(-c3cn[nH]c3)n2)cn1 (single isomer, unassigned) [Example 2-1, (R)- or (S)—N-(1-(1-cyclopropylethyl)-1H-pyrazol-4-yl)-2-(1H-pyrazol-4-yl)thiazole-4-carboxamide]",32.4
